# Laboratory results reported in patent US6903117B2, “Indole derivatives for the treatment of osteoporosis” (Nikem Research S.R.L., priority 1996, dated 2005).
# pIC50: −log10 of the molar value. Where a name gives a salt, the structure may show the parent alone. Read-outs that look alike come from different tables or passages of the source.
# What was measured:
# [1] = biological target: bafilomycin-sensitive ATPase in chicken osteoclasts (Gallus gallus, UniProt A0A8V0Z1D5+Q9I8C8); assay: Inhibition of bafilomycin-sensitive ATPase in chicken osteoclasts; assay type: biochemical
# Experimental: Vesicles were prepared from medullar bone obtained from tibiae and femurs of egg-laying hens which were calcium-starved for at least 15 days. Briefly, bone fragments were scraped with a 24 scalpel blade, suspended in 40 ml of isolation medium (0.2 M sucrose, 50 mM KCl, 10 mM Hepes, 1 mM EGTA, 2 mM dithiotheitrol, pH 7.4) and filtered through a 100 μm pore size nylon mesh. The whole procedure was performed at 4° C. After homogenisation in a potter (20 strokes) in 40 ml of isolation medium an initial centrifugation (6,500×gmax×20 min) was performed to remove mitochondria and lysosomes. The supernatant was centrifuged at 100,000×gmax for 1 hr and the pellet was collected in 1 ml of isolation medium, divided into 200 μl aliquots, immediately frozen in liquid nitrogen and stored at −80° C. The protein content was determined using a Biorad colourimetric kit according to Bradford [M. Bradford, Anal. Biochem., 72, 248 (1976)]. For the proton transport assay, 5-10 μl of membranes were used.
# Purification of osteoclast membranes. 1 ml of crude microsomal vesicles prepared above were applied (about 0.2 ml per tube) on the top of a sucrose step-gradient consisting of 3.5 ml of 15%, 30% and 45% (w/w) sucrose in isolation medium and centrifuged at 280,000 gmax for 2 hours (SW 41 Ti rotor). After centrifugation the 30-45% sucrose interfaces were collected, diluted approx. 20-fold in isolation medium and pelletted at 100,000 gmax for 1 hour (SW 28 rotor). The pellet was then resuspended in 1 ml of isolation medium, aliquoted and frozen in liquid N2 and stored at −80° C. until used.
# Inhibition of bafilomycin-sensitive ATPase activity was assessed in purified membrane vesicles by measuring the release of inorganic phosphate (Pi) during 30 min of incubation at 37° C. in a 96-well plate either in the presence or in the absence of bafilomycin A1. The reaction medium contained 1 mM ATP, 10 mM HEPES-Tris pH 8, 50 mM KCl, 5 uM valinomycin, 5 uM nigericin, 1 mM CDTA-Tris, 100 uM ammonium molybdate, 0.2 M sucrose and membranes (20 ug protein/ml). The reaction was initiated by MgSO4 (8-arm pipette) and stopped, after 30 min, by addition of 4 volumes of the malachite green reagent (96-arm pipette) prepared according to Chan [Anal. Biochem. 157, 375 (1986)]. Absorbance at 650 nm was measured after 2 min using a microplate reader. Results are expressed as μmol (Pi)×mg protein^−1×hour^−1 and, for each experiment, represent the mean±sem of triplicates.
# [2] = tested on: osteoclast proton pump; settings: avian osteoclast membrane vesicles; cited from earlier work
# [3] = tested on: ovariectomised mature rats; assay: Prevention of bone loss in ovariectomised mature rats; assay type: in vivo, rat; settings: % prevention of bone loss versus vehicle treated animals
# From the text: Prevention of bone loss in ovariectomised mature rats. The methodology employed is based on that described by Wronsky et al. [J. Bone Min. Res., 6, 387 (1991)]. The bone loss, prevalently cancellous, occuring after the surgery is monitored by dual emission X-ray absorptiometry (DEXA) measurements of bone mineral density (BMD) of long bones and by HPLC measurements of urinary levels of products of bone collagen breakdown, such as the cross-link residues pyridinoline (PYD), deoxypyridinoline (DPD) and lysine glycosides, i.e. galactosyl-hydroxylysine (GHYL) and glucosyl-galactosyl-hydroxylysine (GGHYL). Groups of 7-10 female Sprague-Dawley rats, about 90 days old and weighing 200-250 g are used. Rats are anesthetised by sodium pentobarbital (35 mg/kg i.v.), laparotomy is performed and ovaries are bilaterally removed. Wounds are adequately disinfected and sutured. A group is sham operated. […] Before and at the end of the experimental period, the bone metaphyseal mineral densities of left distal femur and proximal tibia were evaluated in vivo using lightly anaesthetised animals. Results are expressed as % of prevention of bone loss versus vehicle treated animals, using the following equation, where BMD indicates the bone mineral density at the end of the experimental period and is expressed as the percent of pre-ovariectomy baseline: [formula] […]
# [4] = tested on: human osteoclasts; assay: Human Osteoclast Resorption Assay; assay type: cell-based; settings: human osteoclasts on bone slices
# Experimental: 1) Bone resorption by disaggregated rat osteoclasts can be assessed as described previously in the literature [T. J. Chambers et al., Endocrinology, 1985, 116, 234]. Briefly, osteoclasts were mechanically disaggregated from neonatal rat long bones into Hepes-buffered medium 199 (Flow, UK). The suspension was agitated with a pipette, and the larger fragments were allowed to settle for 30 sec. The cells were then added to two wells of a multiwell dish containing bone slices (each measuring 12 mm^2). After 15 min at 37° C. the bone slices were removed, washed in medium 199 and placed in individual wells of a 96-well plate. […] The number of osteoclasts and bone resorption were quantified by confocal laser scanning microscopy (CLSM): the bone slices were fixed with 2% glutaraldehyde in 0.2 M cacodylate buffer and the osteoclasts on each bone slice were stained for tartrate-resistant acid phosphatase. […] The number and the size of the osteoclastic excavations, the plain area and the volume of bone resorbed was recorded. Results were expressed as mean pit number per bone slice, mean pit number per osteoclast, mean area per osteoclast or mean volume per osteoclast.
# 2) Bone resorption by human osteoclasts can be assessed using a modification of the method above. […] Bone slices were then treated and analysed as described above for the rat osteoclast assay.
# [5] = tested on: osteoclast cultures; settings: cited from earlier work
# [6] = chicken osteoclast membranes, read-out: IC50 (nM) ATPase assay
# [7] = read-out: IC50 (nM) ATPase assay, chicken osteoclast membranes
# bafilomycin-sensitive ATPase in chicken osteoclasts, sequence (Q9I8C8 entry or part of it): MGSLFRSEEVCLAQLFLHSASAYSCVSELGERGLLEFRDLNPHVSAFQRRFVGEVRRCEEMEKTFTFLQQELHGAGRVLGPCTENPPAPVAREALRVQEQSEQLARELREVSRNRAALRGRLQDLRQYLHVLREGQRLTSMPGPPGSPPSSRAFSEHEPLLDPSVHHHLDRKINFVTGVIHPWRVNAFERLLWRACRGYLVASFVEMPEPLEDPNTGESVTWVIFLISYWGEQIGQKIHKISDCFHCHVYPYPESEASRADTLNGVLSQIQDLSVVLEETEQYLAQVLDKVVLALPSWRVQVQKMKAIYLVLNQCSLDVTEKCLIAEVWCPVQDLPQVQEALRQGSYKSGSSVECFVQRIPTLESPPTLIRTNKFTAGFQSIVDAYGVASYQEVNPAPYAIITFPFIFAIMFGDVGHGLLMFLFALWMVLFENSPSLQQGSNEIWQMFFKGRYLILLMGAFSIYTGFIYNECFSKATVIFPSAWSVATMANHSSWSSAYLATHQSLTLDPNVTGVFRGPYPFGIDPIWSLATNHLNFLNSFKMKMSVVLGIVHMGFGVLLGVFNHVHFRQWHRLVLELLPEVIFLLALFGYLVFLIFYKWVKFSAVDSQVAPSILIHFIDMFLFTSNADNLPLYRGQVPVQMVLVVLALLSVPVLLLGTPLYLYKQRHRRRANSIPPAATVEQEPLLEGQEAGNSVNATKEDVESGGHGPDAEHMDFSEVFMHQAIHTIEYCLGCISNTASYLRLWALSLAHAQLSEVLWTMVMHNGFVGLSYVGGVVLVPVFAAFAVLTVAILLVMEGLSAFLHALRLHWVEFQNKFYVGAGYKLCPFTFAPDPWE
# bafilomycin-sensitive ATPase in chicken osteoclasts, sequence (P49712 whole entry, further chain, the tested form may be a part): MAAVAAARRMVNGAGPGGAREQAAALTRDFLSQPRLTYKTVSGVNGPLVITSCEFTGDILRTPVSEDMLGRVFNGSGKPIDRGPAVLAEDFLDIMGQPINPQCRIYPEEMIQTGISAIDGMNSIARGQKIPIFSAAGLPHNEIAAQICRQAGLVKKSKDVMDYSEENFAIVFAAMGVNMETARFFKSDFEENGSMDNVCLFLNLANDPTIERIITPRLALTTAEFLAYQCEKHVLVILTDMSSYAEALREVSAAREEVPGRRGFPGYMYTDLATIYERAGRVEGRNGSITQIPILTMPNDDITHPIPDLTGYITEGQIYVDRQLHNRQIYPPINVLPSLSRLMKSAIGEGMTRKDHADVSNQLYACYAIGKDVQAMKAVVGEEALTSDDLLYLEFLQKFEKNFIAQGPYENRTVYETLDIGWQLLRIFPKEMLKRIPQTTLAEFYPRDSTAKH
# bafilomycin-sensitive ATPase in chicken osteoclasts, sequence (Q5ZHL0 whole entry, further chain, the tested form may be a part): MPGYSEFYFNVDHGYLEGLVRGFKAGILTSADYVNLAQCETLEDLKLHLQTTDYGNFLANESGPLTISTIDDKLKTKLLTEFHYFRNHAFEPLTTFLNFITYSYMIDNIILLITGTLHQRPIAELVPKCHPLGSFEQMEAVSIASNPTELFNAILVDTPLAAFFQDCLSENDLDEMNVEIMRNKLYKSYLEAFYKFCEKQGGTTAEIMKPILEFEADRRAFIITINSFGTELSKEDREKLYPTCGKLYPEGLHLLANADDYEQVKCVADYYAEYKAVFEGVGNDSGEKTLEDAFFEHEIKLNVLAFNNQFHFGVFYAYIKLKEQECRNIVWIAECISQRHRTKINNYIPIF
# bafilomycin-sensitive ATPase in chicken osteoclasts, sequence (Q90647 whole entry, further chain, the tested form may be a part): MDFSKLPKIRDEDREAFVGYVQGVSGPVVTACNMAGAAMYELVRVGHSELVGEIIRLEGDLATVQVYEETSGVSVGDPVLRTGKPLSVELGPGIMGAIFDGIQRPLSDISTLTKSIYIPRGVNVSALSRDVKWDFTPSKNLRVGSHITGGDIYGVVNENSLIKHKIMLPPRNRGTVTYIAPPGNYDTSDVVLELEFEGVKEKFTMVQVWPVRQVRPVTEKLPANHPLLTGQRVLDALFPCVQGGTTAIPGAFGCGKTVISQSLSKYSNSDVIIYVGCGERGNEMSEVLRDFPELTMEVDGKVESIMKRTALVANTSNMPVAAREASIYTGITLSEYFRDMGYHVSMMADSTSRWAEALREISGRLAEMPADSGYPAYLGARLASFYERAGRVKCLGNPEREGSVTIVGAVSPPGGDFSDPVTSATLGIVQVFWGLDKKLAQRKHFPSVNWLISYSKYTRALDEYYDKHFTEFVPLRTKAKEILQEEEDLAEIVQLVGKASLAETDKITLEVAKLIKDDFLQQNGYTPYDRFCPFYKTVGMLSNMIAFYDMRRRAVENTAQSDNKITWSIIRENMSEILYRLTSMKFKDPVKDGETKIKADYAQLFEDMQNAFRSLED
# bafilomycin-sensitive ATPase in chicken osteoclasts, sequence (A0A8V0Z1D5 entry or part of it): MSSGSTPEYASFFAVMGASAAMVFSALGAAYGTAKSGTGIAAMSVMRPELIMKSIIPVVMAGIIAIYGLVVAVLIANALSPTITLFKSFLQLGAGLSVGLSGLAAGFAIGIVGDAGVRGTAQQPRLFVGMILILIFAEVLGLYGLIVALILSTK
"IC50 [1, 6] [nM]",melting point [°C],Molecule,inhibition of proton transport by the osteoclast proton pump [2],further results
30,,"COC(=CC=Cc1cc2cc(Cl)c(Cl)cc2[nH]1)C(=O)NCCCN1C(C)CN(c2ncccn2)CC1C (stereo not shown) [Example 62, (2Z,4E)-5-(5,6-Dichloro-1H-indol-2-yl)-N-[3-[2,6-dimethyl-4-(2-pyrimidinyl)plperazin-1-yl]propyl]-2-methoxy-2,4-pentadienamide hydrochloride]",,
42,220 to 222,"CO/C(=C\C=C\c1cc2cc(Cl)c(Cl)cc2[nH]1)C(=O)NCCCN1CCCN(c2ncccn2)CC1 [Example 74, (2Z,4E)-5-(5,6-Dichloro-1H-indol-2-yl)-N-[3-[4-(2-pyrimidinyl)homopiperazin-1-yl]propyl]-2-methoxy-2,4-pentadienamide]",,
,,Cc1nc2c(OCc3ccccc3)cccn2c1CC#N [SCH 28080],not inhibited,
24,,"CO/C(=C\C=C\c1cc2cc(Cl)c(Cl)cc2[nH]1)C(=O)NC1CC(C)(C)N(C)C(C)(C)C1 [Example 1, (2Z,4E)-5-(5,6-Dichloro-1H-indol-2-yl)-2-methoxy-N-(1,2,2,6,6-pentamethylpiperidin-4-yl)-2,4-pentadienamide]",,Protection of bone loss in ovariectomised mature rats at 10 mg/kg p.o. [3]: 76%; pIC50 [4]: 8.47
41,200 to 201,"CO/C(=C\C=C\c1cc2cc(Cl)c(Cl)cc2[nH]1)C(=O)NC1CCCC(N(C)C)C1 (stereo not shown) [Example 61, (2Z,4E)-5-(5,6-Dichloro-1H-indol-2-yl)-N-(3-dimethylamino-cyclohexyl)-2-methoxy-2,4-pentadienamide]",,
30,219 to 220,"CO/C(=C\C=C\c1cc2cc(Cl)c(Cl)cc2[nH]1)C(=O)NCCCN1CCN(c2ccccn2)CC1 [Example 75, (2Z,4E)-5-(5,6-Dichloro-1H-indol-2-yl)-N-[3-[4-(2-pyridyl)piperazin-1-yl]propyl]-2-methoxy-2,4-pentadienamide]",,
,,CO/C1=C\C(C)=C\[C@@H](C)[C@@H](O)[C@@H](C)C/C(C)=C/C=C/[C@H](OC)[C@@H]([C@@H](C)[C@@H](O)[C@H](C)[C@@]2(O)C[C@@H](O)[C@H](C)[C@@H](C(C)C)O2)OC1=O [bafilomycin A1],inhibited,inhibition of bone resorption in osteoclast cultures [5]: able to inhibit
,,C[C@@H]1O[C@@H](O[C@H]2C[C@@H](O)[C@]3(CO)[C@H]4[C@H](O)C[C@]5(C)[C@@H](C6=CC(=O)OC6)CC[C@]5(O)[C@@H]4CC[C@]3(O)C2)[C@H](O)[C@H](O)[C@H]1O [ouabain],not inhibited,
,,[Na+].[Na+].[Na+].[O]=[V]([O-])([O-])[O-] [sodium orthovanadate],not inhibited,
,,CCN1C(=O)C=CC1=O [N-ethylmaleimide],inhibited,
,245,"COC(=CC=Cc1cc2cc(Cl)c(Cl)cc2[nH]1)C(=O)NCCCN1C(C)CN(c2ncccn2)CC1C (stereo not shown) (as salt: hydrochloride) [Example 62, (2Z,4E)-5-(5,6-Dichloro-1H-indol-2-yl)-N-[3-[2,6-dimethyl-4-(2-pyrimidinyl)plperazin-1-yl]propyl]-2-methoxy-2,4-pentadienamide hydrochloride]",,

Molecule,"IC50 [1, 6] [nM]",melting point [°C],inhibition of proton transport by the osteoclast proton pump [2],further results
"CO/C(=C\C=C\c1cc2cc(Cl)c(Cl)cc2[nH]1)C(=O)NCCCN1CCN(c2cccc(Cl)c2)CC1 [Example 68, (2Z,4E)-5-(5,6-Dichloro-1H-indol-2-yl)-N-[3-[-4-(3-chlorophenyl)piperazin-1-yl]propyl]-2-methoxy-2,4 pentadienamide]",,192 to 193,,"IC50 [1, 7]: 18 nM"
"CO/C(=C\C=C\c1cc2cc(Cl)c(Cl)cc2[nH]1)C(=O)NCCCN1CCN(c2ccccc2)CC1 [Example 64, (2Z,4E)-5-(5,6-Dichloro-1H-indol-2-yl)-2-methoxy-N-(3-[-4-(phenyl)piperazin-1-yl]propyl] 2,4-pentadienamide]",,223 to 225,,"IC50 [1, 7]: 67 nM"
"(2Z,4E)-5-(5,6-Dichloro-1H- indol-2-yl)-N-(2a beta, 4a alpha, 6 beta, 7a alpha- decahydro-pyrrolo[2.1.5- cd]indolizyn-6-yl)-2- methoxy-2,4- pentadienamide [Example 55]",23,,,
